Data set [1] concerns the target T1, Serine/threonine-protein kinase PAK 4 (Homo sapiens, UniProt O96013). The experiment in a line: Inhibition of recombinant human N-terminal GST-fused PAK4 (1 to 591 residues) expressed in baculovirus expression system using S2 as substrate measured after 40 mins by HTRF assay. In general terms: In TR-FRET formats the signal depends on donor and acceptor labels being close together.

Data set [2] in a line: Oral bioavailability in metastatic solid tumor patient. As to conditions: human, in vivo. Type of data set: ADME, organism-based.
Data set [3] addresses T1, Serine/threonine-protein kinase PAK 4. As to the kind of experiment: Inhibition of myc-tagged PAK4 (unknown origin) using histone H3 as substrate preincubated for 30 mins followed by substrate addition measured for 30 mins in presence of [gamma-32P]ATP by autoradiographic method.

Structures are written as SMILES.

T1 sequence (O96013 whole entry, the tested form may be a part): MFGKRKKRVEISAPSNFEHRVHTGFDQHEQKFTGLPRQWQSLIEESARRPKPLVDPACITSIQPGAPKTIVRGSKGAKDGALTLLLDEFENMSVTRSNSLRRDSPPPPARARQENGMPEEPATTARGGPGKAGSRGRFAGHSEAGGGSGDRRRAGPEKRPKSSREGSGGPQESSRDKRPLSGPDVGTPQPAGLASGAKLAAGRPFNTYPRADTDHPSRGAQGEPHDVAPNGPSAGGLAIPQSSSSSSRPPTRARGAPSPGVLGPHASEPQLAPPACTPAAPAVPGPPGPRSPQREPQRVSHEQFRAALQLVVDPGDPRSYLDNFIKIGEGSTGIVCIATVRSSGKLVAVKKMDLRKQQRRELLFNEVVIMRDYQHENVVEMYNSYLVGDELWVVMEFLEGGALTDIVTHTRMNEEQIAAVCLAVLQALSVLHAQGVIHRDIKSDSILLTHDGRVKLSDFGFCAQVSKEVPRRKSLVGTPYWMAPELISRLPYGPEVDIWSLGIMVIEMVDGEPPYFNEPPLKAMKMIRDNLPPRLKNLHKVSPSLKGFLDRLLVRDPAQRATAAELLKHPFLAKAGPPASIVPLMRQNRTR

As usually defined, the IC50 is the concentration at which inhibition is half-maximal. As for `Clc1ccc2nc(Nc3cc(Br)c4[nH]ncc4c3)nc(NCCc3c[nH]c4ccccc34)c2c1`, the IC50 in data set [1] was 1060 nM.
Still for that read-out and setting: to `Clc1ccc2nc(Nc3cc(Cl)c4[nH]ncc4c3)nc(NCCc3c[nH]c4ccccc34)c2c1` belongs 937 nM.
Still for that read-out and setting: to `O=C1Cc2cc(Nc3nc(NCCc4c[nH]c5ccccc45)c4cc(Cl)ccc4n3)ccc2N1` belongs 1760 nM.
As usually defined, the bioavailability is dose-corrected exposure relative to a reference, in per cent. The low end stands for poor availability, the high end for good availability. In data set [2], `Cc1nc(Nc2n[nH]c3c2CN(C(=O)N[C@H](CN(C)C)c2ccccc2)C3(C)C)c2sccc2n1` [PF-03758309] displayed a bioavailability of 1%.
For the molecule `Clc1ccc2nc(Nc3ccc4cn[nH]c4c3)nc(NCCc3c[nH]c4ccccc34)c2c1`, the IC50 in data set [1] turned out to be 2040 nM.
Same read-out and setting: to `Cc1cc(Nc2nc(NCCc3c[nH]c4ccccc34)c3cc(Cl)ccc3n2)cc2cn[nH]c12` belongs 2330 nM.
The same measure, in the same setting: to `Clc1ccc2nc(Nc3ccc4[nH]cnc4c3)nc(NCCc3c[nH]c4ccccc34)c2c1` belongs 3070 nM; to `COc1ccc2c(Nc3ccc4[nH]ncc4c3)nc(NCCc3c[nH]c4ccccc34)nc2c1`, 483 nM.
As to `COc1cccc(Nc2nc(NCC3CCCO3)c3ccccc3n2)c1` (configuration not stated), the IC50 in data set [3] was found to be 14500 nM.
As to `Clc1ccc2nc(Nc3cnc4[nH]ncc4c3)nc(NCCc3c[nH]c4ccccc34)c2c1`, the IC50 in data set [1] turned out to be 633 nM.
Regarding `COc1ccc2nc(NCCc3c[nH]c4ccccc34)nc(Nc3ccc4[nH]ncc4c3)c2c1`, the IC50 in data set [1] came to 1510 nM.
The same measure, in the same setting: to `Clc1ccc2nc(Nc3ccc4[nH]nnc4c3)nc(NCCc3c[nH]c4ccccc34)c2c1` belongs 1160 nM.

The values above are taken from ChEMBL document CHEMBL4011593, “Development of 2, 4-diaminoquinazoline derivatives as potent PAK4 inhibitors by the core refinement strategy” (Eur J Med Chem, 2017).
